Experimental data taken from ChEMBL document CHEMBL1201862, “PubChem BioAssay data set” (2004).
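In this assay, cells in 96-well plates receive the compound at five concentrations for 48 hours. Endpoints are linearly interpolated between the surrounding concentrations. The concentration for 50% growth inhibition is given as GI50.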 Active and inactive are the calls of the source. No stated cut-off is given here; in the data, active = GI50 up to about 1.1 µM and inactive = higher.

How the values were obtained:
Assay in all cases: DTP human tumour cell line panel, 48 h
MOLT-4 = tested on: MOLT-4
T47D = tested on: T47D
RPMI-8226 = tested on: RPMI-8226
SN12C = tested on: SN12C
M14 = tested on: M14
SNB-75 = tested on: SNB-75
SW-620 = tested on: SW-620
OVCAR-5 = tested on: OVCAR-5
PC-3 = tested on: PC-3
SK-MEL-28 = tested on: SK-MEL-28
EKVX = tested on: EKVX
IGROV-1 = tested on: IGROV-1
UACC-62 = tested on: UACC-62
OVCAR-4 = tested on: OVCAR-4
MDA-N = tested on: MDA-N
HCT-116 = tested on: HCT-116
HOP-62 = tested on: HOP-62
SF-295 = tested on: SF-295
SK-MEL-2 = tested on: SK-MEL-2
RXF 393 = tested on: RXF 393
TK-10 = tested on: TK-10
K562 = tested on: K562
HT-29 = tested on: HT-29
NCI/ADR-RES = tested on: NCI/ADR-RES
NCI-H522 = tested on: NCI-H522
HOP-92 = tested on: HOP-92
SK-OV-3 = tested on: SK-OV-3
BT-549 = tested on: BT-549
Hs-578T = tested on: Hs-578T
MCF7 = tested on: MCF7
SR = tested on: SR
ACHN = tested on: ACHN
MDA-MB-231 = tested on: MDA-MB-231
U-251 = tested on: U-251
OVCAR-8 = tested on: OVCAR-8
SK-MEL-5 = tested on: SK-MEL-5
OVCAR-3 = tested on: OVCAR-3
SNB-19 = tested on: SNB-19
KM12 = tested on: KM12
NCI-H23 = tested on: NCI-H23
UACC-257 = tested on: UACC-257
CAKI-1 = tested on: CAKI-1
A498 = tested on: A498
COLO 205 = tested on: COLO 205
HCC 2998 = tested on: HCC 2998
UO-31 = tested on: UO-31
A549 = tested on: A549
NCI-H226 = tested on: NCI-H226
NCI-H460 = tested on: NCI-H460
DU-145 = tested on: DU-145
HCT-15 = tested on: HCT-15
786-0 = tested on: 786-0
SF-268 = tested on: SF-268
HL-60 = tested on: HL-60
LOX IMVI = tested on: LOX IMVI
CCRF-CEM = tested on: CCRF-CEM
Malme-3M = tested on: Malme-3M
MDA-MB-435 = tested on: MDA-MB-435
SF-539 = tested on: SF-539

Question: O=c1c2c3c(sc2nc(CN2CCNCC2)n1-c1ccccc1)CCCC3 was tested. Which GI50 (MOLT-4) did it give?
Answer: > 100 µM (inactive)

Question: What about the GI50 (T47D) of the same molecule?
Answer: 99.5 µM (inactive)

Question: And the GI50 (RPMI-8226)?
Answer: > 100 µM (inactive)

Question: What about the GI50 (SN12C) of the same molecule?
Answer: > 100 µM (inactive)

Question: What about the GI50 (M14) of the same molecule?
Answer: > 100 µM (inactive)

Question: What about the GI50 (SNB-75) of the same molecule?
Answer: 34.8 µM (inactive)

Question: And the GI50 (SW-620)?
Answer: > 100 µM (inactive)

Question: And the GI50 (OVCAR-5)?
Answer: > 100 µM (inactive)

Question: And the GI50 (PC-3)?
Answer: > 100 µM (inactive)

Question: What about the GI50 (SK-MEL-28) of the same molecule?
Answer: > 100 µM (inactive)

Question: What about the GI50 (EKVX) of the same molecule?
Answer: > 100 µM (inactive)

Question: What about the GI50 (IGROV-1) of the same molecule?
Answer: > 100 µM (inactive)

Question: What about the GI50 (UACC-62) of the same molecule?
Answer: > 100 µM (inactive)

Question: And the GI50 (OVCAR-4)?
Answer: 22.8 µM (inactive)

Question: What about the GI50 (MDA-N) of the same molecule?
Answer: 89.1 µM (inactive)

Question: What about the GI50 (HCT-116) of the same molecule?
Answer: 53.3 µM (inactive)

Question: And the GI50 (HOP-62)?
Answer: > 100 µM (inactive)

Question: What about the GI50 (SF-295) of the same molecule?
Answer: > 100 µM (inactive)

Question: And the GI50 (SK-MEL-2)?
Answer: > 100 µM (inactive)

Question: What about the GI50 (RXF 393) of the same molecule?
Answer: > 100 µM (inactive)

Question: What about the GI50 (TK-10) of the same molecule?
Answer: > 100 µM (inactive)

Question: What about the GI50 (K562) of the same molecule?
Answer: > 100 µM (inactive)

Question: And the GI50 (HT-29)?
Answer: 35.9 µM (inactive)

Question: What about the GI50 (NCI/ADR-RES) of the same molecule?
Answer: > 100 µM (inactive)

Question: And the GI50 (NCI-H522)?
Answer: > 100 µM (inactive)

Question: What about the GI50 (HOP-92) of the same molecule?
Answer: > 100 µM (inactive)

Question: And the GI50 (SK-OV-3)?
Answer: > 100 µM (inactive)

Question: And the GI50 (BT-549)?
Answer: > 100 µM (inactive)

Question: And the GI50 (Hs-578T)?
Answer: > 100 µM (inactive)

Question: And the GI50 (MCF7)?
Answer: > 100 µM (inactive)

Question: What about the GI50 (SR) of the same molecule?
Answer: > 100 µM (inactive)

Question: And the GI50 (ACHN)?
Answer: > 100 µM (inactive)

Question: And the GI50 (MDA-MB-231)?
Answer: > 100 µM (inactive)

Question: What about the GI50 (U-251) of the same molecule?
Answer: > 100 µM (inactive)

Question: What about the GI50 (OVCAR-8) of the same molecule?
Answer: > 100 µM (inactive)

Question: And the GI50 (SK-MEL-5)?
Answer: > 100 µM (inactive)

Question: What about the GI50 (OVCAR-3) of the same molecule?
Answer: > 100 µM (inactive)

Question: And the GI50 (SNB-19)?
Answer: > 100 µM (inactive)

Question: What about the GI50 (KM12) of the same molecule?
Answer: > 100 µM (inactive)

Question: And the GI50 (NCI-H23)?
Answer: > 100 µM (inactive)

Question: What about the GI50 (UACC-257) of the same molecule?
Answer: > 100 µM (inactive)

Question: And the GI50 (CAKI-1)?
Answer: 90.8 µM (inactive)

Question: What about the GI50 (A498) of the same molecule?
Answer: > 100 µM (inactive)

Question: What about the GI50 (COLO 205) of the same molecule?
Answer: > 100 µM (inactive)

Question: And the GI50 (HCC 2998)?
Answer: > 100 µM (inactive)

Question: And the GI50 (UO-31)?
Answer: 54.2 µM (inactive)

Question: What about the GI50 (A549) of the same molecule?
Answer: > 100 µM (inactive)

Question: What about the GI50 (NCI-H226) of the same molecule?
Answer: > 100 µM (inactive)

Question: And the GI50 (NCI-H460)?
Answer: > 100 µM (inactive)

Question: What about the GI50 (DU-145) of the same molecule?
Answer: > 100 µM (inactive)

Question: And the GI50 (HCT-15)?
Answer: > 100 µM

Question: What about the GI50 (786-0) of the same molecule?
Answer: > 100 µM (inactive)

Question: And the GI50 (SF-268)?
Answer: 65.5 µM (inactive)

Question: What about the GI50 (HL-60) of the same molecule?
Answer: > 100 µM (inactive)

Question: What about the GI50 (LOX IMVI) of the same molecule?
Answer: > 100 µM (inactive)

Question: And the GI50 (CCRF-CEM)?
Answer: > 100 µM (inactive)

Question: And the GI50 (Malme-3M)?
Answer: > 100 µM (inactive)

Question: CCOP(=O)(/C=C\n1ccc(N)nc1=O)OCC was tested. Which GI50 (MOLT-4) did it give?
Answer: > 100 µM (inactive)

Question: What about the GI50 (T47D) of the same molecule?
Answer: > 100 µM (inactive)

Question: And the GI50 (RPMI-8226)?
Answer: > 100 µM (inactive)

Question: What about the GI50 (SN12C) of the same molecule?
Answer: > 100 µM (inactive)

Question: And the GI50 (M14)?
Answer: > 100 µM (inactive)

Question: What about the GI50 (MDA-MB-435) of the same molecule?
Answer: > 100 µM (inactive)

Question: And the GI50 (SNB-75)?
Answer: > 100 µM (inactive)

Question: What about the GI50 (SW-620) of the same molecule?
Answer: > 100 µM (inactive)

Question: And the GI50 (OVCAR-5)?
Answer: > 100 µM (inactive)

Question: What about the GI50 (PC-3) of the same molecule?
Answer: > 100 µM (inactive)

Question: What about the GI50 (SK-MEL-28) of the same molecule?
Answer: > 100 µM (inactive)

Question: And the GI50 (EKVX)?
Answer: > 100 µM (inactive)

Question: What about the GI50 (IGROV-1) of the same molecule?
Answer: > 100 µM (inactive)

Question: And the GI50 (UACC-62)?
Answer: > 100 µM (inactive)

Question: And the GI50 (OVCAR-4)?
Answer: > 100 µM (inactive)

Question: And the GI50 (MDA-N)?
Answer: > 100 µM (inactive)

Question: What about the GI50 (HCT-116) of the same molecule?
Answer: > 100 µM (inactive)

Question: And the GI50 (HOP-62)?
Answer: > 100 µM (inactive)

Question: What about the GI50 (SF-295) of the same molecule?
Answer: > 100 µM (inactive)

Question: What about the GI50 (SK-MEL-2) of the same molecule?
Answer: > 100 µM (inactive)

Question: And the GI50 (RXF 393)?
Answer: > 100 µM (inactive)

Question: What about the GI50 (TK-10) of the same molecule?
Answer: > 100 µM (inactive)

Question: What about the GI50 (K562) of the same molecule?
Answer: > 100 µM (inactive)

Question: What about the GI50 (HT-29) of the same molecule?
Answer: > 100 µM (inactive)

Question: What about the GI50 (NCI/ADR-RES) of the same molecule?
Answer: > 100 µM (inactive)

Question: And the GI50 (NCI-H522)?
Answer: 47.4 µM (inactive)

Question: And the GI50 (SK-OV-3)?
Answer: > 100 µM (inactive)

Question: And the GI50 (BT-549)?
Answer: > 100 µM (inactive)

Question: What about the GI50 (Hs-578T) of the same molecule?
Answer: 0.349 µM (active)

Question: What about the GI50 (MCF7) of the same molecule?
Answer: > 100 µM (inactive)

Question: What about the GI50 (SF-539) of the same molecule?
Answer: > 100 µM (inactive)

Question: And the GI50 (ACHN)?
Answer: > 100 µM (inactive)

Question: And the GI50 (MDA-MB-231)?
Answer: > 100 µM (inactive)

Question: What about the GI50 (U-251) of the same molecule?
Answer: > 100 µM (inactive)

Question: What about the GI50 (OVCAR-8) of the same molecule?
Answer: > 100 µM (inactive)

Question: And the GI50 (SK-MEL-5)?
Answer: > 100 µM (inactive)

Question: What about the GI50 (OVCAR-3) of the same molecule?
Answer: > 100 µM (inactive)

Question: What about the GI50 (SNB-19) of the same molecule?
Answer: > 100 µM (inactive)

Question: What about the GI50 (KM12) of the same molecule?
Answer: > 100 µM (inactive)

Question: What about the GI50 (NCI-H23) of the same molecule?
Answer: > 100 µM (inactive)

Question: What about the GI50 (UACC-257) of the same molecule?
Answer: > 100 µM (inactive)

Question: What about the GI50 (CAKI-1) of the same molecule?
Answer: > 100 µM (inactive)

Question: And the GI50 (COLO 205)?
Answer: > 100 µM (inactive)

Question: And the GI50 (A549)?
Answer: > 100 µM (inactive)

Question: What about the GI50 (NCI-H226) of the same molecule?
Answer: > 100 µM (inactive)

Question: What about the GI50 (NCI-H460) of the same molecule?
Answer: > 100 µM (inactive)

Question: And the GI50 (DU-145)?
Answer: > 100 µM (inactive)

Question: What about the GI50 (HCT-15) of the same molecule?
Answer: > 100 µM

Question: What about the GI50 (786-0) of the same molecule?
Answer: > 100 µM (inactive)

Question: What about the GI50 (SF-268) of the same molecule?
Answer: > 100 µM (inactive)

Question: What about the GI50 (HL-60) of the same molecule?
Answer: > 100 µM (inactive)

Question: And the GI50 (LOX IMVI)?
Answer: > 100 µM (inactive)

Question: What about the GI50 (CCRF-CEM) of the same molecule?
Answer: > 100 µM (inactive)
